Experimental data published in patent publication US10081616B2, “Soluble epoxide hydrolase inhibitors and uses thereof” (X-Chem, Inc., priority 2014, dated 2018).

Molecular target: T1, sEH (Homo sapiens, UniProt P34913)
T1 construct: purchased Cayman Chemical 10011669
T1 sequence (P34913 1-555): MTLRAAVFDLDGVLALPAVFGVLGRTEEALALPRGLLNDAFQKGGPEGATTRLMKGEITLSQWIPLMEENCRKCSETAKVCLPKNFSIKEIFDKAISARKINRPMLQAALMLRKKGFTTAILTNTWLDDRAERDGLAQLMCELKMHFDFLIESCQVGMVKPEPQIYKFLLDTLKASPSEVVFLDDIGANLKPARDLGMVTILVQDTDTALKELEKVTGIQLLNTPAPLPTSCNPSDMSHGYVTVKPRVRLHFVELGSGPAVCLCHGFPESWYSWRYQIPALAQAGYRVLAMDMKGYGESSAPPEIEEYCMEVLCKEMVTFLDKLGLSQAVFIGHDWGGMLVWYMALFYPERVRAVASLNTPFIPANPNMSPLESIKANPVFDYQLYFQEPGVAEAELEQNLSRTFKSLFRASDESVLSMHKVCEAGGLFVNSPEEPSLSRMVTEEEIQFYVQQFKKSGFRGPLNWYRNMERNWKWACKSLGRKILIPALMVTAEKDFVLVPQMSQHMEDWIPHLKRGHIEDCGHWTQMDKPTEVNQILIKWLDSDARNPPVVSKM
Experiment: sEH inhibition assay (Epoxy Fluor 7 substrate, fluorescence)
Format: biochemical
Conditions: enzyme 3 nM, 15 min pre-incubation at room temperature, read at 30° C. for 20 minutes, read-out: IC50 against sEH
Experimental: The sEH inhibition assay was conducted in costar 384 well black NBS plates (Corning). The assay buffer used was 25 mM Tris pH 7.0 and 0.1 mg/ml BSA. The enzyme was purchased from Cayman Chemical (10011669) at a stock concentration of 15.625 μM. The Epoxy Fluor 7 substrate also from Cayman Chemical (10008610) was dissolved in DMSO at a concentration of 25.68 mM. This was further diluted ten-fold in DMSO to a concentration of 2.568 mM. Competition assays were performed with 5 μL Epoxy Fluor 7 diluted from DMSO stock to a final concentration of 5 nM, 5 μL of competitor (final concentration 10 μM-0.5 nM), and 10 μL enzyme (final concentration of 3 nM) in the assay buffer for a total volume of 20 μL. The compound was pre-incubated with enzyme for 15 min at room temperature prior to addition of substrate. The plate was read kinetically at excitation 330 nm and emission 465 nm wavelengths at 30° C. for 20 minutes on the Tecan M1000. The rate was calculated for the linear portion of the curves (2.5-12.5 minutes) and data fit to a sigmoidal curve.

## CN(CCn1cccn1)C(=O)c1ccc(-c2cccc(C(=O)NC3CCCCC3)c2)nc1 [Compound 1, N-(2-(1H-pyrazol-1-yl)ethyl)-6-(3-(cyclohexylcarbamoyl)phenyl)-N-methylnicotinamide]
  IC50: 2 nM
